Measurements published in patent US20220184240A1, “ORGANIC COMPOUNDS” (INTRA-CELLULAR THERAPIES, INC., priority 2019, published 2022).
One block for each molecule: values may come before it.

Legend:
PDE5 = PDE5 (Homo sapiens, UniProt O76074); test: PDE panel inhibitory constant (Ki) determination; assay type: biochemical
Experimental: (§1) Inhibitory constant (Ki) values for Compound 1 were determined against a full panel of phosphodiesterase family members. […] In contrast, potency of Compound 1 for PDE1 A, B and C is roughly equivalent.

PDE6 [1] = biological target: T1, PDE6; test: PDE panel inhibitory constant (Ki) determination; assay type: biochemical
T1 construct: Ki; other: PDE6
Experimental: as §1

PDE10A = PDE10A (Homo sapiens, UniProt Q9Y233); test: PDE panel inhibitory constant (Ki) determination; assay type: biochemical
PDE10A, sequence (Q9Y233 whole entry, species assumed): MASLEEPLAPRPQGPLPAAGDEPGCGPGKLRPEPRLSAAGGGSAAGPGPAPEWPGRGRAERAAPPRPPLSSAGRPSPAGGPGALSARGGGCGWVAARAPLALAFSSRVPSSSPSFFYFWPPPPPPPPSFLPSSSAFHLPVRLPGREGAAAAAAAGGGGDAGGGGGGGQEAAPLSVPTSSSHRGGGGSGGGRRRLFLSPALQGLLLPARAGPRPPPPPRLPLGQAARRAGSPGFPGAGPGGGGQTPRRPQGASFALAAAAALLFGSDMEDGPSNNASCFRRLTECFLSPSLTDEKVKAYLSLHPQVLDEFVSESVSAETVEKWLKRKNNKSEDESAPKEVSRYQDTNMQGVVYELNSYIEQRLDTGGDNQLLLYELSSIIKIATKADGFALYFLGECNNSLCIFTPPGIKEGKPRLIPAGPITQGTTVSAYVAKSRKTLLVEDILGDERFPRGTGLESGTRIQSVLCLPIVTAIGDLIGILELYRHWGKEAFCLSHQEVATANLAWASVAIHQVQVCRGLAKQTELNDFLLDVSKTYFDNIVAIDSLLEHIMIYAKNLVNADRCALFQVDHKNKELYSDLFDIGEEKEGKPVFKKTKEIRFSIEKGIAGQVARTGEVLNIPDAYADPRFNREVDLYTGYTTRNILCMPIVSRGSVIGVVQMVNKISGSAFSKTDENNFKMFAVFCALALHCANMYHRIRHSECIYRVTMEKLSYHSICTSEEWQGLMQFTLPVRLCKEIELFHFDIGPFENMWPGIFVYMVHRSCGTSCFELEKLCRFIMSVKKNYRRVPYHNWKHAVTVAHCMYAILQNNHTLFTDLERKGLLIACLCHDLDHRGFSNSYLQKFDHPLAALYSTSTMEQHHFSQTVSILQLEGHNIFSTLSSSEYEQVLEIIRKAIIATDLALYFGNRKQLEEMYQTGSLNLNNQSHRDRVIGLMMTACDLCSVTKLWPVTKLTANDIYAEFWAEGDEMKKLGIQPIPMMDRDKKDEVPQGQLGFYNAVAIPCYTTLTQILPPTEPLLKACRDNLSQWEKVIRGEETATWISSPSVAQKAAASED
Experimental: as §1

PDE4A = PDE4A (Homo sapiens, UniProt P27815); test: PDE panel inhibitory constant (Ki) determination; assay type: biochemical
Experimental: as §1

PDE1C = PDE1C (Homo sapiens, UniProt Q14123); test: PDE panel inhibitory constant (Ki) determination; assay type: biochemical
PDE1C, sequence (Q14123 whole entry, species assumed): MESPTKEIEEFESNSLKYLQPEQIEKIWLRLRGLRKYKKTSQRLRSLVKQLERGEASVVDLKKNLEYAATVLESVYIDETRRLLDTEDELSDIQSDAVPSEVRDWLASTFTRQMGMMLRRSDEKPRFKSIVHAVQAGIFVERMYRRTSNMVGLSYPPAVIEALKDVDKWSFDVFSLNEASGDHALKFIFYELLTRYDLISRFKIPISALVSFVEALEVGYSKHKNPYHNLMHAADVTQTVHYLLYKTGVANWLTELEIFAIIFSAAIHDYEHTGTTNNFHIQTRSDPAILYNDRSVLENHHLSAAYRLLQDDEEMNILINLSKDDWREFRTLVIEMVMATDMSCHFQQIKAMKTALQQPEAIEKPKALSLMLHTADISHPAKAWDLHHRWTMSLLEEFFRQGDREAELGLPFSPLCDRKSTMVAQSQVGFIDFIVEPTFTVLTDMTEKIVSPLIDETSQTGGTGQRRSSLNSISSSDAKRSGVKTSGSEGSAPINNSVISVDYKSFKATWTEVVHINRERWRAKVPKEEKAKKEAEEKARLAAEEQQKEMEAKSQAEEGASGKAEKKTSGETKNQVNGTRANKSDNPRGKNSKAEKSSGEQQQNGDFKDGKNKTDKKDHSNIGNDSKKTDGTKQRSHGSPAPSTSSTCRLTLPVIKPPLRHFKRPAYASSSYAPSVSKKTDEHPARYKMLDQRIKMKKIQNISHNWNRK
Experimental: as §1

PDE6 [2] = test: PDE panel inhibitory constant (Ki) determination; assay type: biochemical
Experimental: as §1

[3] = biological target: T2, (Homo sapiens, UniProt Q08499); test: PDE panel inhibitory constant (Ki) determination; assay type: biochemical; conditions: PDE1D
T2 construct: Ki; other: PDE1D
Experimental: as §1

PDE1B = PDE1B (Homo sapiens, UniProt Q01064); test: PDE panel inhibitory constant (Ki) determination; assay type: biochemical
PDE1B, sequence (Q01064 whole entry, species assumed): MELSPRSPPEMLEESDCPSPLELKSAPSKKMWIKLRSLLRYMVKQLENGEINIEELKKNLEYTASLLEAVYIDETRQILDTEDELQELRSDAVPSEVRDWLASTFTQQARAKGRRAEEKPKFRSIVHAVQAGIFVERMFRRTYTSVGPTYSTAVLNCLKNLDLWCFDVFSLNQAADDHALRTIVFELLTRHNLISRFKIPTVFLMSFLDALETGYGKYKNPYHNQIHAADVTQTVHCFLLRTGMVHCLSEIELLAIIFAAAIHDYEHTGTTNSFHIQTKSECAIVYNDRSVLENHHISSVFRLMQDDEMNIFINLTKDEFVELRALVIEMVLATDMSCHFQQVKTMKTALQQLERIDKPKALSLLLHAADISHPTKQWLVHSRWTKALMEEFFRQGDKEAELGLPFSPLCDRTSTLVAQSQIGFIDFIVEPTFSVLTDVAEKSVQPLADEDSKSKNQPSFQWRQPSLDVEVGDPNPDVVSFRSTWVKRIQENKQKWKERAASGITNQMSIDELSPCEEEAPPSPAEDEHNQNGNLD
Experimental: as §1

PDE1 (Bovine Brain) [4] = biological target: T3, PDE1 (Bovine Brain); test: PDE panel inhibitory constant (Ki) determination; assay type: biochemical
T3 construct: Ki; other: PDE1 (Bovine Brain)
Experimental: as §1

PDE9A = PDE9A (Homo sapiens, UniProt O76083); test: PDE panel inhibitory constant (Ki) determination; assay type: biochemical
Experimental: as §1

PDE11A = PDE11A (Homo sapiens, UniProt Q9HCR9); test: PDE panel inhibitory constant (Ki) determination; assay type: biochemical
PDE11A, sequence (Q9HCR9 whole entry, species assumed): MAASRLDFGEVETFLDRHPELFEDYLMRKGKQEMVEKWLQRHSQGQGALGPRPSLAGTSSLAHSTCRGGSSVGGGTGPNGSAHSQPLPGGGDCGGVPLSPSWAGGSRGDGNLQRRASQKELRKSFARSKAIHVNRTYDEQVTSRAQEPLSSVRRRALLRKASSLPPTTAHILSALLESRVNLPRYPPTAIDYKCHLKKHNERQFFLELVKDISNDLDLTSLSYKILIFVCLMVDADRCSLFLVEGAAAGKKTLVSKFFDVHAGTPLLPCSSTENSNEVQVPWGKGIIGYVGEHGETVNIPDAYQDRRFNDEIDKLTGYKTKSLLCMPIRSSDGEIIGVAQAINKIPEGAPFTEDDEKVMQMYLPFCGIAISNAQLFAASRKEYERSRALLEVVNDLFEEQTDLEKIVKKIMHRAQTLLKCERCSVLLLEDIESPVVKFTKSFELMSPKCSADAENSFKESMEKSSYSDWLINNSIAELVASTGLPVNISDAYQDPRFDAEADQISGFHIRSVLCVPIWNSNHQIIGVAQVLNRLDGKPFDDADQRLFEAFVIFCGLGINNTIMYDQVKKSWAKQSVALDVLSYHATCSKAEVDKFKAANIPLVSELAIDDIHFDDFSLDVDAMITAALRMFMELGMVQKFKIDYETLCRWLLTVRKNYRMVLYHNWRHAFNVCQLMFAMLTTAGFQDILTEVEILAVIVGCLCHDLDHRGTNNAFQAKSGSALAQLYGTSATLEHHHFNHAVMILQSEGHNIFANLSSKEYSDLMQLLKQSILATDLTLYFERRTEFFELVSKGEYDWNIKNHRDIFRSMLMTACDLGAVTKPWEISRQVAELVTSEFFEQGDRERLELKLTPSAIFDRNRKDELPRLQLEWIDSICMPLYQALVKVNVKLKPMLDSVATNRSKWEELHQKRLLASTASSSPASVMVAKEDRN
Experimental: as §1

PDE3B = PDE3B (Homo sapiens, UniProt Q13370); test: PDE panel inhibitory constant (Ki) determination; assay type: biochemical
PDE3B, sequence (Q13370 whole entry, species assumed): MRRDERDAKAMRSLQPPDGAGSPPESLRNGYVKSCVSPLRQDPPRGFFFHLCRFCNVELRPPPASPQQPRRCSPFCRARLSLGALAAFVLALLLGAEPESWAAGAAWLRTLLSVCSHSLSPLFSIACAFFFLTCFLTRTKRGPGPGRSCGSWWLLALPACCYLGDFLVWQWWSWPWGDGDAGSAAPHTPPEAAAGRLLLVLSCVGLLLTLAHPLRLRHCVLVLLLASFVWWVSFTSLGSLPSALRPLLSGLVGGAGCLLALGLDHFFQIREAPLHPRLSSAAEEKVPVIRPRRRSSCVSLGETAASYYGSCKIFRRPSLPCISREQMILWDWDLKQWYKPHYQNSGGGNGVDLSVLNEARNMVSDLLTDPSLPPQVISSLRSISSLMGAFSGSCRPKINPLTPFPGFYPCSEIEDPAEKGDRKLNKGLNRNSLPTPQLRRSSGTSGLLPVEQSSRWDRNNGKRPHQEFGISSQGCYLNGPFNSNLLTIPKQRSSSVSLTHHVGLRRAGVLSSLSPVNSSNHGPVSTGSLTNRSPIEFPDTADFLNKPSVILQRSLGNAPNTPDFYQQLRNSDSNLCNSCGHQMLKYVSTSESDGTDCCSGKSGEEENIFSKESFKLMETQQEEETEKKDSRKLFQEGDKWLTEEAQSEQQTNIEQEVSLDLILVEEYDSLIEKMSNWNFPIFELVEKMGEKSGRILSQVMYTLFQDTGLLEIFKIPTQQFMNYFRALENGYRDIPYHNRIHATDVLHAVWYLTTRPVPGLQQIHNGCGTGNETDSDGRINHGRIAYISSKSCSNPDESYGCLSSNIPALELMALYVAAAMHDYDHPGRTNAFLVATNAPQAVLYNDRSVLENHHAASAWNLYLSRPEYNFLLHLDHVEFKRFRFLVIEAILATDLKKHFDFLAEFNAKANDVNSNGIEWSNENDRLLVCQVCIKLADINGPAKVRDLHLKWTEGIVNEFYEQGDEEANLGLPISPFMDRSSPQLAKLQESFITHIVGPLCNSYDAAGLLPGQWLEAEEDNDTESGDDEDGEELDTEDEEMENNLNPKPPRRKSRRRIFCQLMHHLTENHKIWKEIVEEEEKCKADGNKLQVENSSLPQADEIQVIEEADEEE
Experimental: as §1

PDE1 (Bovine Brain) [5] = test: PDE panel inhibitory constant (Ki) determination; assay type: biochemical
Experimental: as §1

[6] = PDE panel inhibitory constant (Ki) determination; assay type: biochemical; conditions: PDE1D
Experimental: as §1

PDE8A = PDE8A (Homo sapiens, UniProt O60658); test: PDE panel inhibitory constant (Ki) determination; assay type: biochemical
Experimental: as §1

PDE1A = PDE1A (Homo sapiens, UniProt P54750); test: PDE panel inhibitory constant (Ki) determination; assay type: biochemical
Experimental: as §1

PDE2A = PDE2A (Homo sapiens, UniProt O00408); test: PDE panel inhibitory constant (Ki) determination; assay type: biochemical
Experimental: as §1

PDE7B = PDE7B (Homo sapiens, UniProt Q9NP56); test: PDE panel inhibitory constant (Ki) determination; assay type: biochemical
PDE7B, sequence (Q9NP56 whole entry, species assumed): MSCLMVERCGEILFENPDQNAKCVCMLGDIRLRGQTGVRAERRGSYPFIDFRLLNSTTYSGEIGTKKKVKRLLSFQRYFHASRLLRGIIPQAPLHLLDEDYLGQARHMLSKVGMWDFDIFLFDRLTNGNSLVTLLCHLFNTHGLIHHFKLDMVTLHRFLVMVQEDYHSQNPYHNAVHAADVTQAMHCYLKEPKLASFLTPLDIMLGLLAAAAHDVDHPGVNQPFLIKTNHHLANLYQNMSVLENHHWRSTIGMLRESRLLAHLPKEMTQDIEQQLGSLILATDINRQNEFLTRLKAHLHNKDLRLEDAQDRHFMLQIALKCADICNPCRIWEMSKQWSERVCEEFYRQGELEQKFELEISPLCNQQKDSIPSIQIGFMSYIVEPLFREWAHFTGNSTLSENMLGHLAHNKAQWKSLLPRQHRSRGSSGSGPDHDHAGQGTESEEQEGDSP
Experimental: as §1

[7] = system: PDE1 enzymes versus all other PDE families; test: Selectivity over full panel of phosphodiesterase family members; assay type: biochemical
Experimental: as §1

[8] = biological target: Compound 2 binding to PDE1 in mouse cortex; test: EGTA titration of Compound 2 binding (calcium dependency)
Experimental: FIG. 4 illustrates Ca^2+-dependent binding of Compound 2, as defined in Example 1, to mouse cortex. Binding of the radioligand is prevented in the presence of EGTA, a specific chelator of calcium
In a further study, binding of Compound 2 (1.5 nM) to mouse cortex was titrated with different concentration of the calcium chelator EGTA to determine the calcium dependency of the ligand binding. […] Levels of binding activity remaining in the presence of excess (200 uM) EGTA was approximately 5% relative to the binding levels in the absence of EGTA.

PDE1 in striatal slices [9] = test: Striatal slice cGMP levels after K+ depolarization; assay type: cell-based; conditions: 1 μM compound preincubation, 1-minute high K+ depolarization
Experimental: FIG. 1 illustrates the effect of PDE1 inhibition on striatal cGMP levels. Striatal slices were preincubated with either vehicle or compound, followed by a 1-minute stimulation with high K+ or vehicle. cGMP levels were normalized to baseline levels for comparison. […] PDE1 inhibition by 1 μM ITI-041 or 1 μM ITI-214 in the presence of K+ depolarization (striped bars).
Striatal tissue slice preparations were used to further study regulation of PDE1 by intracellular calcium concentration. The striatal slice preparation maintains a portion of the circuitry of the intact striatum including interneurons, nerve terminals from cortical and nigral neuronal inputs, and medium spiny neurons, which account for the majority (95%) of neurons. Depolarization of the cell membrane by increasing external potassium (K+) concentration is a well-established method of stimulating striatal slices, particularly to trigger release of neurotransmitters such as glutamate from the nerve terminals. Under these conditions, both voltage gated calcium channels and NMDA receptors are expected to open, allowing an influx of calcium into the cells. The increase in intracellular calcium can both activate PDE1 in the medium spiny neurons and activate nitric oxide synthase (NOS) in the interneurons via calcium-calmodulin binding. […]

PDE1 in striatal slices [10] = test: Striatal slice cGMP levels with ionomycin; assay type: cell-based; conditions: ionomycin 10 μM alone, in Krebs buffer
Experimental: (§2) FIG. 2 illustrates that increased Ca2+ is sufficient to unmask the active site of PDE1 and allow PDE1 inhibitor binding to the active site therefore increasing cGMP. Increased intracellular calcium is sufficient to increase cGMP levels in the presence of PDE1 inhibitor.
(§3) The calcium ionophore ionomycin was used to control intracellular calcium concentrations in the absence of depolarization. Ionomycin (10 μM, in Krebs buffer) increased intracellular calcium, as confirmed by increased calcium-sensitive phosphorylation of Ca2+/calmodulin-dependent protein kinase II (CaMKII), as shown in FIG. 2A. […] Elimination of extracellular calcium by replacing the calcium chloride in the Krebs solution with 3 mM EGTA prevented the elevation in cGMP seen with PDE1 inhibition and ionomycin.

[11] = system: Ca2+/calmodulin-dependent protein kinase II (CaMKII); test: CaMKII phosphorylation (Western blotting); assay type: cell-based; conditions: ionomycin 10 μM, in Krebs buffer
Experimental: as §2, §3

Ki (PDE5): 48.9 µM | Ratio PDEx/PDE1A (PDE5): 31,595 | Ki (PDE6 [1]): 14.1 µM | Ki (PDE10A): 42.9 µM | Ratio PDEx/PDE1A (PDE10A): 27,687 | Ki (PDE4A): 6.6 µM | Ratio PDEx/PDE1A (PDE4A): 4,263 | Ki (PDE1C): 0.0013 µM | Ratio PDEx/PDE1A (PDE1C): 0.85 | Ratio PDEx/PDE1A (PDE6 [2]): 9,122 | Ki [3]: 2.4 µM | Ki (PDE1B): 0.0092 µM | Ratio PDEx/PDE1A (PDE1B): 5.9 | Ki (PDE1 (Bovine Brain) [4]): 0.001 µM | Ki (PDE9A): > 100 µM | Ratio PDEx/PDE1A (PDE9A): >64,589 | Ki (PDE11A): 40.7 µM | Ratio PDEx/PDE1A (PDE11A): 26,289 | Ki (PDE3B): 78.9 µM | Ratio PDEx/PDE1A (PDE3B): 50,983 | Ratio PDEx/PDE1A (PDE1 (Bovine Brain) [5]): 0.67 | Ratio PDEx/PDE1A [6]: 1,561 | Ki (PDE8A): > 100 µM | Ratio PDEx/PDE1A (PDE8A): >64,589 | Ki (PDE1A): 0.0015 µM | Ratio PDEx/PDE1A (PDE1A): 1 | Ki (PDE2A): > 100 µM | Ratio PDEx/PDE1A (PDE2A): >64,589 | Ki (PDE7B): 13.1 µM | Ratio PDEx/PDE1A (PDE7B): 8,448 | selectivity toward all other PDE families [7]: > 1000 fold
Structure (SMILES): CN1C(=O)c2c(nn(Cc3ccc(C4CCCN4C)cc3)c2Nc2ccc(F)cc2)N2CC(C)(C)N=C12 (stereo not shown) [Compound 1, 3-((4-fluorophenyl)amino)-5,7,7-trimethyl-2-(4-(1-methylpyrrolidin-2-yl)benzyl)-7,8-dihydro-2H-imidazo[1,2-a]pyrazolo[4,3-e]pyrimidin-4(5H)-one]

IC50 ([8]; Compound 2 1.5 nM, mouse cortex, read-out: IC50 for decrease of specific binding of Compound 2): 7.7 µM | binding of the radioligand in the presence of EGTA ([8]; FIG. 4, mouse cortex): prevented | binding activity remaining relative to absence of EGTA ([8]; excess (200 uM) EGTA, mouse cortex): approximately 5%
Structure (SMILES): O=C(O)CN(CCOCCOCCN(CC(=O)O)CC(=O)O)CC(=O)O [EGTA]

Structure (SMILES): CN1C(=O)c2c(nn(Cc3ccc(-c4cccc(F)n4)cc3)c2Nc2ccccc2)N2C1=N[C@@H]1CCC[C@@H]12 [ITI-214]
striatal cGMP levels (PDE1 in striatal slices [9]): increased cyclic nucleotide levels

Structure (SMILES): C[C@H](CCC(=O)O)C[C@H](C)C[C@H](C)C(=O)/C=C(\O)[C@H](C)C[C@H](C)C/C=C/[C@@H](C)[C@@H](O)[C@@H](C)[C@@H](O)C[C@@H]1CC[C@@](C)([C@H]2CC[C@@](C)([C@@H](C)O)O2)O1 [Ionomycin, ionomycin]
striatal cGMP levels (PDE1 in striatal slices [10]): did not lead to elevated cGMP levels | calcium-sensitive phosphorylation of CaMKII [11]: increased
